Assay results: article PMC10299909, “Structural basis of efficacy-driven ligand selectivity at GPCRs” (Nature Chemical Biology, 2023)
Substitutions are numbered along the chain they refer to. Several values for one entry are separate records, joined by “and”; a condition that tells them apart may be missing. Equal entries are not always repeated. Where two headings read alike, the source gives them in different places. One block for each compound: values may come before it.

Tests used:
M1 mAChR = M1 mAChR (Homo sapiens, UniProt P11229); experiment: cell-based
M3 mAChR [1] = biological target: T1, M3 mAChR (Homo sapiens, UniProt P20309); experiment: whole-cell [3H]NMS radioligand competition binding, CHO FlpIn cells; conditions: first set of experiments, read-out: pKI (radioligand binding competition with [3H]NMS) (converted)
T1 construct: expressed in transfected cells; host or cells: CHO FlpIn

M4 mAChR [2] = biological target: T2, M4 mAChR (Homo sapiens, UniProt P08173); experiment: as above; conditions: M4; first set of experiments (top 5 rows); read-out: pKI (radioligand binding competition with [3H]NMS) (converted)
T2 construct: expressed in transfected cells; host or cells: CHO FlpIn
T2 sequence (P08173 1-479): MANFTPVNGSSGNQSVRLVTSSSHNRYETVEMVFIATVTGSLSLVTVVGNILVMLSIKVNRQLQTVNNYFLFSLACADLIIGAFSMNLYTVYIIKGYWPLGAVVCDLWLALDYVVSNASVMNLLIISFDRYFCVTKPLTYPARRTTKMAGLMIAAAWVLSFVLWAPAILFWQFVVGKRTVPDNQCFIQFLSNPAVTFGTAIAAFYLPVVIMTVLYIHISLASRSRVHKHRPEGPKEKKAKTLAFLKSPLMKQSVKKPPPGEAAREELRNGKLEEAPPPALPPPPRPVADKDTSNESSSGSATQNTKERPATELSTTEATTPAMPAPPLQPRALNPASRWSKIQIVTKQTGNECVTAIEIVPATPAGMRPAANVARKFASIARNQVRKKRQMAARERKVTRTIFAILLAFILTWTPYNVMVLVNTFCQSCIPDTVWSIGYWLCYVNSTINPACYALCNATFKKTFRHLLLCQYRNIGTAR

M2 mAChR [3] = biological target: T3, M2 mAChR (Homo sapiens, UniProt P08172); experiment: cell-based
T3 sequence (P08172 1-466): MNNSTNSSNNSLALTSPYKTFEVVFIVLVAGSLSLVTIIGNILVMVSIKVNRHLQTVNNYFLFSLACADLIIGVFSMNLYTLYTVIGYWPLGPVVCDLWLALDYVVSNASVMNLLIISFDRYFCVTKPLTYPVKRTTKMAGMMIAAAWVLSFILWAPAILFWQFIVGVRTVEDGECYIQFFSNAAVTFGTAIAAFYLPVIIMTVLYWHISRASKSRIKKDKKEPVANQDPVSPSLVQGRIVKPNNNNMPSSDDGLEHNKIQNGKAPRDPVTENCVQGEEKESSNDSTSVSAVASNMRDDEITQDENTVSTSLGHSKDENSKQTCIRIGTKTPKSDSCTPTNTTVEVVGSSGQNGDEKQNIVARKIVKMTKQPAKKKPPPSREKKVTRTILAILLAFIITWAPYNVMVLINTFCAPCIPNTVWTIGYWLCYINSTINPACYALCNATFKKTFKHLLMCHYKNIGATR

M5 mAChR [4] = biological target: T4, M5 mAChR (Homo sapiens, UniProt P08912); experiment: whole-cell [3H]NMS radioligand competition binding, CHO FlpIn cells; conditions: first set of experiments, read-out: pKI (radioligand binding competition with [3H]NMS) (converted)
T4 construct: expressed in transfected cells; host or cells: CHO FlpIn
T4 sequence (P08912 1-532): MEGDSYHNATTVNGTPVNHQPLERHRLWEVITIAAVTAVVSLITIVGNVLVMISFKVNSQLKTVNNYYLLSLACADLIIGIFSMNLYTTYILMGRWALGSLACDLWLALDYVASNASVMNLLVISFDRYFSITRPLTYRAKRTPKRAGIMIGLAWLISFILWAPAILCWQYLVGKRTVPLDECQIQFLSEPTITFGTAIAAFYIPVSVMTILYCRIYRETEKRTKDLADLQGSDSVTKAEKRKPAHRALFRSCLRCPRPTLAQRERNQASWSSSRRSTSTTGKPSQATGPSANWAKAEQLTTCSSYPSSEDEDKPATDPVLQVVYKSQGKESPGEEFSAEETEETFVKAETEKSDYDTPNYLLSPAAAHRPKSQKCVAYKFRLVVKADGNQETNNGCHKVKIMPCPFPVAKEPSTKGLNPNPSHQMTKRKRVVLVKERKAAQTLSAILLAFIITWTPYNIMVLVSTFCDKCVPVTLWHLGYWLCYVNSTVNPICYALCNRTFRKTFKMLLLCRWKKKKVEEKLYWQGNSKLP

M4 WT mAChR = biological target: T5, M4 WT mAChR (Homo sapiens, UniProt P08173); experiment: BRET TRUPATH GoA activation (G-protein dissociation) assay; assay type: cell-based; conditions: T=6min, listed as Ach
T5 construct: expressed in transfected cells; host or cells: CHO FlpIn
T5 sequence (P08173 1-479): T2 sequence (P08173 1-479)
Experimental: (§1) Cells were seeded at 20,000 cells per well into 96-well flat-bottom white culture plates and grown for 4 h. Plasmid DNA (20 ng per well of Gα, Gβ and Gγ at a 1:1:1 ratio) and linear polyethylenimine were added to the cells in a 1:6 ratio. To allow for protein expression, cells were then incubated (37 °C, 5% CO2) for 48 h before the measurement of agonist activity. […] The initial 4 min of measurement was considered baseline counts before ligand or vehicle addition, with BRET readings every 2 min for a further 8 min following drug or vehicle addition.
(§2) Concentration–response curves were fitted to a three-parameter logistic equation to derive ligand potency (pEC50) estimates.
(§3) Data was analyzed using the operational model of agonism to quantify the efficacy (Logτ) of each agonist in each cell line, and subsequently corrected for receptor expression level differences between cell lines (Logτc), using the M2 WT as reference. […] Source data

M4 L190F mAChR [5] = biological target: T6, M4 L190F mAChR (Homo sapiens, UniProt P08173, L190F); experiment: as above; assay type: cell-based; conditions: T=6min, listed as Ach
T6 construct: expressed in transfected cells; host or cells: CHO FlpIn
T6 sequence (P08173 1-479 L190F): T2 sequence (P08173 1-479) with L190F
Experimental: as §1, §2, §3

M2 WT mAChR = biological target: T7, M2 WT mAChR (Homo sapiens, UniProt P08172); experiment: as above; assay type: cell-based; conditions: M2 wt, T=6min, individual experiments, listed as Ach
T7 construct: expressed in transfected cells; host or cells: CHO FlpIn
T7 sequence (P08172 1-466): T3 sequence (P08172 1-466)
Experimental: as §1, §2, §3

M4 mAChR [6] = biological target: M4 mAChR (Homo sapiens, UniProt P08173); experiment: [3H]NMS competition binding, purified receptor in lipid nanodiscs with Gi1 heterotrimer
M2 mAChR [7] = biological target: M2 mAChR (Homo sapiens, UniProt P08172)
M5 mAChR [8] = biological target: T4, M5 mAChR; experiment: pERK1/pERK2 signaling assay (AlphaScreen SureFire), CHO FlpIn cells; assay type: cell-based; conditions: first set of experiments
M4 L190F mAChR [9] = biological target: T6, M4 L190F mAChR; experiment: as above; assay type: cell-based
M3 mAChR [10] = biological target: T1, M3 mAChR; experiment: as above; assay type: cell-based; conditions: M3; first set of experiments
M4 mAChR [11] = biological target: T2, M4 mAChR; experiment: as above; assay type: cell-based; conditions: Figure 5c, by tail length, best fit value from nonlinear regression on grouped data
M2 mAChR [12] = biological target: T3, M2 mAChR; experiment: as above; assay type: cell-based; conditions: Figure 5c, by tail length, best fit value from nonlinear regression on grouped data
[13] = Log[Ligand] (M) -4, individual experiments
[14] = Log[Ligand] (M) -9, individual experiments
[15] = Log[Ligand] (M) -10, individual experiments
[16] = Log[Ligand] (M) -12, individual experiments
[17] = Receptor : G protein Molar Ratio 1:0

SMILES: CCCOc1nsnc1C1=CCCN(C)C1 [3-carbon tail analog of xanomeline]
- Ki (M1 mAChR): 27.5 nM
- Ki (M3 mAChR [1]): 34.7 nM
- Ki (M4 mAChR [2]): 37.2 nM
- Ki (M2 mAChR [3]): 22.9 nM
- Ki (M5 mAChR [4]): 49 nM

SMILES: CC(=O)OCC[N+](C)(C)C [Acetylcholine, acetylcholine]
- GoA activation response (M4 WT mAChR; [13]): 104.45 % Emax ACh and 102.662 % Emax ACh and 101.586 % Emax ACh and 101.003 % Emax ACh and 104.541 % Emax ACh
- GoA activation response (M4 WT mAChR; [14]): 1.1727 % Emax ACh and 5.239 % Emax ACh and 5.623 % Emax ACh and -1.171 % Emax ACh and 2.894 % Emax ACh
- GoA activation response (M4 WT mAChR; [15]): 3.695 % Emax ACh and 0.8905 % Emax ACh and -7.035 % Emax ACh and 0.4855 % Emax ACh and -3.187 % Emax ACh
- GoA activation response (M4 WT mAChR; [16]): -21.8016 % Emax ACh and 1.058 % Emax ACh and -6.101 % Emax ACh and 1.717 % Emax ACh and -0.3266 % Emax ACh
- GoA activation response (M4 L190F mAChR [5]; [13]): 106.304 % Emax ACh and 103.075 % Emax ACh and 107.769 % Emax ACh and 104.574 % Emax ACh and 105.838 % Emax ACh
- GoA activation response (M4 L190F mAChR [5]; Log[Ligand] (M) -5, individual experiments): 99.5547 % Emax ACh and 105.081 % Emax ACh and 94.0499 % Emax ACh and 100.086 % Emax ACh and 98.7018 % Emax ACh
- GoA activation response (M4 L190F mAChR [5]; Log[Ligand] (M) -6, individual experiments): 84.6502 % Emax ACh and 86.1198 % Emax ACh and 94.9784 % Emax ACh and 91.5878 % Emax ACh and 95.0975 % Emax ACh
- GoA activation response (M4 L190F mAChR [5]; Log[Ligand] (M) -7, individual experiments): 59.4174 % Emax ACh and 69.5753 % Emax ACh and 70.634 % Emax ACh and 76.3729 % Emax ACh and 78.8634 % Emax ACh
- GoA activation response (M4 L190F mAChR [5]; Log[Ligand] (M) -8, individual experiments): 12.4418 % Emax ACh and 20.3625 % Emax ACh and 19.5412 % Emax ACh and 25.1119 % Emax ACh and 33.5842 % Emax ACh
- GoA activation response (M4 L190F mAChR [5]; [14]): 1.269 % Emax ACh and 1.901 % Emax ACh and 28.8031 % Emax ACh and 3.9293 % Emax ACh and 7.995 % Emax ACh
- GoA activation response (M4 L190F mAChR [5]; [15]): -3.41 % Emax ACh and 9.605 % Emax ACh and 0.2419 % Emax ACh and -0.9 % Emax ACh and 0.4231 % Emax ACh
- GoA activation response (M4 L190F mAChR [5]; [16]): 2.811 % Emax ACh and -10.3446 % Emax ACh and -23.8686 % Emax ACh and 0.009116 % Emax ACh and -3.752 % Emax ACh
- GoA activation response (M2 WT mAChR; Log[Ligand] (M) -4): 103.24 % Emax ACh and 95.841 % Emax ACh and 98.7568 % Emax ACh and 99.8054 % Emax ACh and 99.3813 % Emax ACh
- GoA activation response (M2 WT mAChR; Log[Ligand] (M) -8): 9.766 % Emax ACh
- GoA activation response (M2 WT mAChR; Log[Ligand] (M) -9): 1.63 % Emax ACh and -3.189 % Emax ACh and -6.851 % Emax ACh and 0.4007 % Emax ACh and 0.416 % Emax ACh
- GoA activation response (M2 WT mAChR; Log[Ligand] (M) -10): -3.058 % Emax ACh and 8.597 % Emax ACh and 0.3009 % Emax ACh and 1.683 % Emax ACh and 4.386 % Emax ACh
- GoA activation response (M2 WT mAChR; Log[Ligand] (M) -12): 6.399 % Emax ACh and 0.8864 % Emax ACh and 8.076 % Emax ACh and 1.671 % Emax ACh and -0.9147 % Emax ACh
- Fraction of receptors in a G protein-dependent high-affinity state (M4 mAChR [6]; [17]): 0.00 ± 0.04
- Fraction of receptors in a G protein-dependent high-affinity state (M4 mAChR [6]; Receptor : G protein Molar Ratio 1:125): 0.30 ± 0.04
- Fraction of receptors in a G protein-dependent high-affinity state (M4 mAChR [6]; Receptor : G protein Molar Ratio 1:500): 0.71 ± 0.03
- Fraction of receptors in a G protein-dependent high-affinity state (M2 mAChR [7]; [17]): 0.13 ± 0.10
- Fraction of receptors in a G protein-dependent high-affinity state (M2 mAChR [7]; Receptor : G protein Molar Ratio 1:50): 0.33 ± 0.10
- Fraction of receptors in a G protein-dependent high-affinity state (M2 mAChR [7]; Receptor : G protein Molar Ratio 1:1000): 0.57 ± 0.11
- Fraction of receptors in a G protein-dependent high-affinity state (M2 mAChR [7]; Receptor : G protein Molar Ratio 1:2000): 0.89 ± 0.12
- Emax pERK1/2 (M5 mAChR [8]): 90 ± 4 % FBS stimulation
- Emax pERK1/2 (M4 L190F mAChR [9]): 94 ± 8 % FBS stimulation
- Emax pERK1/2 (M3 mAChR [10]): 98 ± 5 % FBS stimulation

SMILES: CCCOc1nsnc1C1=CCCN(C)C1 [C3]
- Fit parameter (M4 mAChR [11]): 0.346
- Fit parameter (M2 mAChR [12]): 0.6149

- Fit parameter (M4 mAChR [11]): 0.4707
- Fit parameter (M2 mAChR [12]): 0.5922
SMILES: CCCCOc1nsnc1C1=CCCN(C)C1 [C4]
